# In publication PMC12016531 (Applied and Environmental Microbiology, 2025):
# Columns and labels:
# [1] = test system: L. monocytogenes ATCC19111; experiment: Intracellular accumulation of UDP-MurNAc-pentapeptide; assay type: cell-based, Listeria monocytogenes; conditions: mycoidesin 1× and 2× MIC, vancomycin 10× MIC; 60 min; chloramphenicol 130 µg/mL pre-incubation 15 min; HPLC, MS
# Description: (§1) Bacillus cereus CMCC63301 and L. monocytogenes ATCC19111 were grown to an OD600 of 0.3 and incubated with chloramphenicol (130 µg/mL) for 15 min. Mycoidesin (1× and 2× MIC) and vancomycin (10× MIC; positive control) were added and incubated for 60 min. The cells were collected, added to boiling water, treated for 15 min, centrifuged, and the supernatant was lyophilized. The intracellular accumulation of the peptidoglycan precursor UDP-MurNAc-pentapeptide was analyzed using HPLC (Hypersil ODS column) and identified via mass spectrometry ([27]).
# [2] = test system: Bacillus cereus CMCC63301; experiment: as above; assay type: cell-based; conditions: mycoidesin 1× and 2× MIC, vancomycin 10× MIC; 60 min; chloramphenicol 130 µg/mL pre-incubation 15 min; HPLC, MS
# Description: as §1
structure (smiles),measurement,setting,value
"CN[C@H](CC(C)C)C(=O)N[C@H]1C(=O)N[C@@H](CC(N)=O)C(=O)N[C@H]2C(=O)N[C@H]3C(=O)N[C@H](C(=O)N[C@H](C(=O)O)c4cc(O)cc(O)c4-c4cc3ccc4O)[C@H](O)c3ccc(c(Cl)c3)Oc3cc2cc(c3O[C@@H]2O[C@H](CO)[C@@H](O)[C@H](O)[C@H]2O[C@H]2C[C@](C)(N)[C@H](O)[C@H](C)O2)Oc2ccc(cc2Cl)[C@H]1O [vancomycin, reference compound]",Intracellular accumulation of UDP-MurNAc-pentapeptide,[1],observed
same,Intracellular accumulation of UDP-MurNAc-pentapeptide,[2],observed
